Consider four compounds from ChEMBL document CHEMBL3217609, “Discovery and characterization of novel potent PARP-1 inhibitors endowed with neuroprotective properties: From TIQ-A to [sequence]” (Medchemcomm, 2011).

pEC50, pIC50: −log10 of the molar value.

The target in series [1] is T1, Poly [ADP-ribose] polymerase tankyrase-1 (Homo sapiens, UniProt O95271).
T1 sequence (O95271 whole entry): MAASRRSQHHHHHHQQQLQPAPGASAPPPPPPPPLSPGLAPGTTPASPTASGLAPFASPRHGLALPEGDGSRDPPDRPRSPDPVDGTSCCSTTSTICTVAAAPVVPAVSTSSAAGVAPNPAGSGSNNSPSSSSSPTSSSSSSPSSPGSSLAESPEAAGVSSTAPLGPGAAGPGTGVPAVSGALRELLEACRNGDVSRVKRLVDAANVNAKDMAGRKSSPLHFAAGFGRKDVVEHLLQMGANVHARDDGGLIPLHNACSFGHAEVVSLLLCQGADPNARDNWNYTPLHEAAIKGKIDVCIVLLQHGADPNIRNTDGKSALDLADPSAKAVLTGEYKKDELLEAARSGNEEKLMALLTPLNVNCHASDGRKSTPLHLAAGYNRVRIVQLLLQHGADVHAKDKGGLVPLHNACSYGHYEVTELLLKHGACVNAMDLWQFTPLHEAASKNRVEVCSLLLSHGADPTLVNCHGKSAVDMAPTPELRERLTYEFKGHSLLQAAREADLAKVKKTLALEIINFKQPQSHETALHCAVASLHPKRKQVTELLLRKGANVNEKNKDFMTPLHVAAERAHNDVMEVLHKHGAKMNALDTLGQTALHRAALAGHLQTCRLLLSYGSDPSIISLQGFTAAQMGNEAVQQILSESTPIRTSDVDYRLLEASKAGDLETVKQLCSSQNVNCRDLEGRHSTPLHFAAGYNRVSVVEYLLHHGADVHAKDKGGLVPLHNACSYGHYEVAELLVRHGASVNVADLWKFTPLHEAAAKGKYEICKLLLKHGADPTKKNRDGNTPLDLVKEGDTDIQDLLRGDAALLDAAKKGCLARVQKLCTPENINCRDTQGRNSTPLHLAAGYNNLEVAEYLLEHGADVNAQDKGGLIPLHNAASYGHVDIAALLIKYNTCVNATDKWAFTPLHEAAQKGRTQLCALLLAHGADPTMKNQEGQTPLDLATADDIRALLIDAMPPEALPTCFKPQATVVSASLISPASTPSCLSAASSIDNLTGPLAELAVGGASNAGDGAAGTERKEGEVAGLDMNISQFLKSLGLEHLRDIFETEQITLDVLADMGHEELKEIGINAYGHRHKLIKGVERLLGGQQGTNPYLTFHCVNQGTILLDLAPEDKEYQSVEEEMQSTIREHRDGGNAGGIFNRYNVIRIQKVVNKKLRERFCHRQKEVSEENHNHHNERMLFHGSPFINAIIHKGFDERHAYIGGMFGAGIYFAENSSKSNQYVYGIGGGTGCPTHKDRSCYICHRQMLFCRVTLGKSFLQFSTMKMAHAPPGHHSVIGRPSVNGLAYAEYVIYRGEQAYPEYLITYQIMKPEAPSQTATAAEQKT
The series is described as follows: Inhibition of tankyrase-1 function in human HeLa cells. Format: cell-based.

Series [2] has as its target T2, Poly [ADP-ribose] polymerase 1 (Homo sapiens, UniProt P09874). As to the kind of experiment: Inhibition of human recombinant PARP1 by fluorescence based multiwell assay.
Series [3] addresses Poly [ADP-ribose] polymerase 2 (Mus musculus, UniProt O88554). As to the kind of experiment: Inhibition of mouse recombinant PARP2 assessed as radioactivity incorporated from [adenine-2,8-3H]NAD into proteins by liquid scintillation spectrometry.
Series [4] is described as follows: Kinetic aqueous solubility of the compound at pH 7.4 at 23 degC. Format: physicochemical. The settings on record: buffer, read-out: Kinetic_solubility.
A short description of series [5]: Half life in human liver microsomes. Format: ADME.
Series [6] in a line: AUC (0 to infinity) in Sprague-Dawley rat at 10 mg/kg, iv. Format: ADME, organism-based. Details: time infinity, dose 10 mg/kg, route intravenous. The settings on record: plasma.
Series [7] has as its system Rattus norvegicus. As to the kind of experiment: Neuroprotective activity in transient middle cerebral artery occlusion Sprague-Dawley rat model assessed as reduction in brain infarct volume at 1 mg/kg, ip 3 times, starting 4 hrs after occlusion relative to vehicle treated control. Type of series: functional. Particulars: route intraperitoneal.
For the next series, the target named is hERG (KCNH2) (Homo sapiens, UniProt Q12809). As to the kind of experiment: Inhibition of human ERG at 10 uM.
Series [8] relates to Rattus norvegicus. As to the kind of experiment: Neuroprotective activity in transient middle cerebral artery occlusion Sprague-Dawley rat model assessed as reduction in brain infarct volume at 0.1 mg/kg, ip 3 times, starting 4 hrs after occlusion relative to vehicle treated control. Type of series: functional. Particulars: route intraperitoneal.
Series [9] addresses T2, Poly [ADP-ribose] polymerase 1. As to the kind of experiment: Inhibition of human PARP1 in HEK293 cells assessed as prevention of in MNNG-induced ATP depletion. Format: cell-based.
Series [10] has as its system Rattus norvegicus. As to the kind of experiment: Neuroprotective activity in permanent middle cerebral artery occlusion Sprague-Dawley rat model assessed as reduction in brain infarct volume at 1 mg/kg, iv 3 times at 30 mins, 3.5 hrs and 6 hrs after occlusion relative to vehicle treated control. Type of series: functional.
Series [11] in a line: Cmax in Sprague-Dawley rat brain at 10 mg/kg, iv. Type of series: ADME, organism-based. Also noted: dose 10 mg/kg, route intravenous.
Series [12] can be described thus: Fraction unbound in Sprague-Dawley rat brain at 10 mg/kg, iv. Format: ADME, organism-based. Details: dose 10 mg/kg, route intravenous.
Series [13] in a line: Permeability of the compound by PAMPA. Format: physicochemical. The settings on record: read-out: permeability.
Series [14] is described as follows: Half life in rat liver microsomes. Format: ADME.
The nature of series [15]: Clearance in rat hepatocytes assessed per 10^6 cells. Format: ADME, cell-based, Hepatocyte. Particulars: read-out: CLH.
Series [16] relates to Rattus norvegicus. As to the kind of experiment: Neuroprotective activity in transient middle cerebral artery occlusion Sprague-Dawley rat model assessed as reduction in brain infarct volume at 10 mg/kg, ip 3 times, starting 4 hrs after occlusion relative to vehicle treated control. Type of series: functional. The settings on record: route intraperitoneal.
Series [17] concerns Rattus norvegicus. As to the kind of experiment: Clearance in Sprague-Dawley rat at 10 mg/kg, iv. Details: dose 10 mg/kg, route intravenous. Type of series: ADME, organism-based. Particulars: in vivo.
The nature of series [18]: Volume of distribution in Sprague-Dawley rat at 10 mg/kg, iv. Type of series: ADME, organism-based. Details: dose 10 mg/kg, route intravenous. Particulars: in vivo.
Series [19] is described as follows: Half life in Sprague-Dawley rat at 10 mg/kg, iv. Format: ADME, organism-based. Also noted: dose 10 mg/kg, route intravenous. The settings on record: in vivo.
The next series relates to Cortical neurone. As to the kind of experiment: Neuroprotective activity in mouse mixed cortical cells assessed as reduction in oxygen-glucose deprivation-induced LDH release. Format: functional, cell-based.
Series [20] can be described thus: Ratio of drug level in brain to plasma in Sprague-Dawley rat at 10 mg/kg, iv. Format: ADME, organism-based. Also noted: dose 10 mg/kg, route intravenous. Particulars: read-out: BPR.
The next series concerns the target Cytochrome P450 2D6 (Homo sapiens, UniProt P10635). The series is described as follows: Inhibition of CYP2D6 (unknown origin). Type of series: ADME.
Series [21] in a line: Clearance in human hepatocytes assessed per 10^6 cells. Type of series: ADME, cell-based, Hepatocyte. The settings on record: read-out: CLH.
The next series relates to Brain. The series is described as follows: Free drug level in Sprague-Dawley rat brain at 10 mg/kg, iv. Particulars: in vivo. Format: ADME, organism-based. Details: dose 10 mg/kg, route intravenous.

Poly [ADP-ribose] polymerase 2, sequence (O88554 whole entry): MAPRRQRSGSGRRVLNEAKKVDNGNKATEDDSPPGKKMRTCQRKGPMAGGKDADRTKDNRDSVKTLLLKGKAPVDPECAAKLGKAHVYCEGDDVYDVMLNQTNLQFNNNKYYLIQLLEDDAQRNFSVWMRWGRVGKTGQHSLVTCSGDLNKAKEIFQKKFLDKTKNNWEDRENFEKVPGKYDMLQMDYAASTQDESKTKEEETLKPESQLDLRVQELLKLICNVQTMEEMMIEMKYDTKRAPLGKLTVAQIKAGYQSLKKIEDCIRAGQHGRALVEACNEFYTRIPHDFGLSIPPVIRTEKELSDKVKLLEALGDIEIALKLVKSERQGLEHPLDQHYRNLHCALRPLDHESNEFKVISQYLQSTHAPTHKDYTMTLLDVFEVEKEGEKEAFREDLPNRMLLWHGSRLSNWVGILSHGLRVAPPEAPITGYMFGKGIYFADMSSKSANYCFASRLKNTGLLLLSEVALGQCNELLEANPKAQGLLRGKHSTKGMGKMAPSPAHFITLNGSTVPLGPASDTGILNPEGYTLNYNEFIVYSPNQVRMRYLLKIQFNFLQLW
T2 sequence (P09874 whole entry): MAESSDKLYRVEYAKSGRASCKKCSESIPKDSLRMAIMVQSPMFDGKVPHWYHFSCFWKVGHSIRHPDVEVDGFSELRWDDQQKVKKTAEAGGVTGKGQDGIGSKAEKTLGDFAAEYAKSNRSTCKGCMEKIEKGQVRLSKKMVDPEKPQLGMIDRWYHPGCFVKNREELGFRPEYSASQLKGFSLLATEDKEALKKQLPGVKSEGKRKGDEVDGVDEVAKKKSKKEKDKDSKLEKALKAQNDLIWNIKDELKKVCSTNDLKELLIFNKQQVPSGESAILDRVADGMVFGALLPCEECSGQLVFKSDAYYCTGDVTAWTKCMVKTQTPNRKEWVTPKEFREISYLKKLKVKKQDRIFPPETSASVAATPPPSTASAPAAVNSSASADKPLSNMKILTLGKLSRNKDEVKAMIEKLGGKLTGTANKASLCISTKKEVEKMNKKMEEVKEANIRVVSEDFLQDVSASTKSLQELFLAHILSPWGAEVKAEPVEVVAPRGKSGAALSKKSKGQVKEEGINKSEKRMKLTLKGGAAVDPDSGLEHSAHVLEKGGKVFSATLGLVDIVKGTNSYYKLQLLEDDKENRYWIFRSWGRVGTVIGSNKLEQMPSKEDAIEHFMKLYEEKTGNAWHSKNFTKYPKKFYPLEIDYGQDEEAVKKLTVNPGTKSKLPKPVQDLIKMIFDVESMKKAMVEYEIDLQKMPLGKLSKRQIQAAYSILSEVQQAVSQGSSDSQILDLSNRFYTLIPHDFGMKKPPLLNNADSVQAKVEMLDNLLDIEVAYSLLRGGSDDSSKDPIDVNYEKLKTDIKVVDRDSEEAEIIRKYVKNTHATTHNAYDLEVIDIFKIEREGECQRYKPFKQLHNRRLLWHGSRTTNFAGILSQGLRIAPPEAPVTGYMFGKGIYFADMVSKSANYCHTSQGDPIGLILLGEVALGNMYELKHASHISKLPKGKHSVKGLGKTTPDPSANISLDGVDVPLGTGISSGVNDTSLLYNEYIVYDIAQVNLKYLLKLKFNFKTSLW
Cytochrome P450 2D6, sequence (P10635 whole entry): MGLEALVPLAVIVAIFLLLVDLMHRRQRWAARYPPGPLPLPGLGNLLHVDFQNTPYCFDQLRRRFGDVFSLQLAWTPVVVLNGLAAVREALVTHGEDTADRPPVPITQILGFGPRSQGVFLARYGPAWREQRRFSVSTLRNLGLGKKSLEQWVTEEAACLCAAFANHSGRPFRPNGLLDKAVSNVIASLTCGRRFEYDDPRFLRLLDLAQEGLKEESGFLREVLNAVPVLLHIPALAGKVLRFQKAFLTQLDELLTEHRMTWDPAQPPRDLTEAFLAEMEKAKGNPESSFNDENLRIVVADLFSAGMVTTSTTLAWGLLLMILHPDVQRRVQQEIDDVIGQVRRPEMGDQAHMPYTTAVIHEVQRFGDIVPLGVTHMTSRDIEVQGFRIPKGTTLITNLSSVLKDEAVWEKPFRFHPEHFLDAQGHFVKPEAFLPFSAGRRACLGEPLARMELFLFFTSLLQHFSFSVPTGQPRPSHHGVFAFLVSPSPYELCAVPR
hERG (KCNH2), sequence (Q12809 whole entry): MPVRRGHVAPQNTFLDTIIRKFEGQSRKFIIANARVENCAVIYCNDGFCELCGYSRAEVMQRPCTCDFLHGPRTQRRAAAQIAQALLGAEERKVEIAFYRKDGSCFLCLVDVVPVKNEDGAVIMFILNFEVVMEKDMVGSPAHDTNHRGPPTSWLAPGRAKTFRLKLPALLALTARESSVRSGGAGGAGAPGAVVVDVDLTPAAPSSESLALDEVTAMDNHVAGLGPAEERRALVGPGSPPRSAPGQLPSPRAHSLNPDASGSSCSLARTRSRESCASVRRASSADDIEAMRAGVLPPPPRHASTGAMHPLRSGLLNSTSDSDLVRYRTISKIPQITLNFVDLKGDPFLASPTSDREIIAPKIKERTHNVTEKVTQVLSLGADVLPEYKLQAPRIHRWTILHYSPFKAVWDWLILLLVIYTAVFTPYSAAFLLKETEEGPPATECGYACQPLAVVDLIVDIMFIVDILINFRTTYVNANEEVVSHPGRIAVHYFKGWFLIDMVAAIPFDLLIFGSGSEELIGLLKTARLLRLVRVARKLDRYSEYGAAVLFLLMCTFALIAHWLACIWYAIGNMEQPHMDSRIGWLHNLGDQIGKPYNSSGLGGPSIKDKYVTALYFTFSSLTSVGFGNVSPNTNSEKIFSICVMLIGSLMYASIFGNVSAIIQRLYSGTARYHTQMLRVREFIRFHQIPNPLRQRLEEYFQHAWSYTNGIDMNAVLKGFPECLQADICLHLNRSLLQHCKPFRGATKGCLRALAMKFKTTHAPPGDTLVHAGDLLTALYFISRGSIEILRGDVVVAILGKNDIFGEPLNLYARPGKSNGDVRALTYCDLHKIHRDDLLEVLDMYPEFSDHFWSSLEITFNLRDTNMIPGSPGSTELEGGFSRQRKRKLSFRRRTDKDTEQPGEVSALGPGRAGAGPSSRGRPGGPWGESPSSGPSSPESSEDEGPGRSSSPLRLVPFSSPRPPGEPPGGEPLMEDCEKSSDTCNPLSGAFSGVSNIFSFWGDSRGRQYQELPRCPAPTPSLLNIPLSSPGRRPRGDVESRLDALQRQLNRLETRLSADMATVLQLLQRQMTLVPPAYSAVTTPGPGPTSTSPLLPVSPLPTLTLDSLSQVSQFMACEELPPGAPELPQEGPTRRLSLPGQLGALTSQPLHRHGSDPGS

With `CN(C)Cc1cc2c([nH]c(=O)c3ccccc32)s1`, the results for the pIC50 in series [1], in series [2] and in series [3] were below 4.00, 6.74 and 6.52, respectively.
For the compound `O=c1[nH]c2sccc2c2ccccc12`, the solubility kinetic in series [4] was below 100 µg/mL. In addition, the figures for the pIC50 in series [2] and in [3] were 6.05 and 6.22, respectively.
As for `Br.CN(C)Cc1cc2c([nH]c(=O)c3cccc(O)c32)s1`, the figures for the half-life in series [5], in series [14] and in series [19] were 30 min, 3 min and 48 min, respectively. In addition, the AUC(0-inf) in series [6] worked out at 1680 ng·h/mL. In addition, the inhibition in vivo at 1 mg/kg in the series with Rattus norvegicus [7] turned out to be 55%; in the series with Rattus norvegicus [10] it was 42%. Further, the solubility kinetic in series [4] turned out to be 70 µg/mL. The compound further had an inhibition at 10 µM against hERG (KCNH2) of 14%. The inhibition in vivo at 0.1 mg/kg in the series on Rattus norvegicus [8] was 17.5%. The results for the pEC50 (in series [9]; with Cortical neurone) were 7.85 and 6.52, respectively. In addition, the pIC50 in series [1] is below 4.00; in [2] it was 7.54; in series [3], 7.42; at Cytochrome P450 2D6, 3.77. The same compound registered a Cmax in series [11] of 678 nM. In series [12], this compound displayed a fraction unbound of 0.13. Further, the Papp in [13] was 4.6 ×10⁻⁶ cm/s. Also, the hepatocyte CLint in series [15] amounted to 26.4 µL/min/1e6 cells; in [21], 22.2 µL/min/1e6 cells. For the same compound, the inhibition in vivo at 10 mg/kg with Rattus norvegicus [16] amounted to 62%. The compound also came in with a clearance in the series with Rattus norvegicus [17] of 69 mL/min/kg. The same compound yielded a Vd in series [18] of 2.1 L/kg. In addition, in series [20], the Kp worked out at 0.26. Besides, the “Drug uptake(free)” value in the series with Brain amounted to 87 nM.
On to `O=c1[nH]c2ccccc2c2ccccc12`, for which the pEC50 in [9] was 6.02; in the series with Cortical neurone, 5.62.
